Assay results from patent US20190030170A1, “CANNABINOID FORMULATIONS WITH IMPROVED SOLUBILITY” (Vireo Health LLC, priority 2016, published 2019).
Values after ≈ are worked out from the molar mass of the structure shown.

Test: solubility of CBD in water and other aqueous solvents with Captisol (SAE-CD) and/or added polymers, surfactants, pH
Assay type: physicochemical
Excerpt: In some embodiments the addition of water soluble polymers and/or surfactants increases the solubility of the CBD/Captisol mixture. Therefore, in some embodiments the formulations may include the addition of these or other ingredients as solubility enhancers.

Compound `C=C(C)[C@@H]1CCC(C)=C[C@H]1c1c(O)cc(CCCCC)cc1O` [CBD, cannabidiol] has a solubility (aqueous solvent with 0.5% Poloxamer 188, without Captisol, aqueous with cosolvent or surfactant or cyclodextrin, Captisol 0%, 0.5% Poloxamer 188) of 133 µg/mL (≈ 0.423 mM), a solubility (aqueous solvent, aqueous with cosolvent or surfactant or cyclodextrin, Captisol 0%, 1% CMC) of 593 µg/mL (≈ 1.89 mM) and a solubility (aqueous solvent, aqueous with cosolvent or surfactant or cyclodextrin, Captisol 0%, 1% CrEL) of 8960 µg/mL (≈ 28.5 mM). The solubility (aqueous solvent, aqueous with cosolvent or surfactant or cyclodextrin, Captisol 0%, 1% HPMC) was 590 µg/mL (≈ 1.88 mM), the solubility (aqueous solvent, aqueous with cosolvent or surfactant or cyclodextrin, Captisol 0%, 1% PVP) was 602 µg/mL (≈ 1.92 mM) and the solubility (aqueous solvent, aqueous with cosolvent or surfactant or cyclodextrin, Captisol 0%, 1% Tween 80) was 4200 µg/mL (≈ 13.3 mM). It also gave a solubility (aqueous solvent, aqueous with cosolvent or surfactant or cyclodextrin, Captisol 0%, 5% CrEL) of 21900 µg/mL (≈ 69.7 mM), a solubility (aqueous solvent, aqueous with cosolvent or surfactant or cyclodextrin, Captisol 0%, 10% CrEL) of 47800 µg/mL (≈ 152 mM) and a solubility (aqueous solvent, aqueous with cosolvent or surfactant or cyclodextrin, Captisol 20%, 0.5% CMC) of 14.5 µg/mL (≈ 0.0461 mM). For the same compound, the solubility (aqueous solvent, aqueous with cosolvent or surfactant or cyclodextrin, Captisol 20%, 0.5% HPMC) was 1320 µg/mL (≈ 4.2 mM), the solubility (aqueous solvent, aqueous with cosolvent or surfactant or cyclodextrin, Captisol 20%, 0.5% PVP) was 1180 µg/mL (≈ 3.74 mM) and the solubility (aqueous solvent, aqueous with cosolvent or surfactant or cyclodextrin, Captisol 20%, 0.5% Poloxamer 188) was 1410 µg/mL (≈ 4.49 mM). The solubility (aqueous solvent, aqueous with cosolvent or surfactant or cyclodextrin, Captisol 20%, 1% CMC) was 1710 µg/mL (≈ 5.44 mM), the solubility (aqueous solvent, aqueous with cosolvent or surfactant or cyclodextrin, Captisol 20%, 1% CrEL) was 4280 µg/mL (≈ 13.6 mM) and the solubility (aqueous solvent, aqueous with cosolvent or surfactant or cyclodextrin, Captisol 20%, 1% HPMC) was 1550 µg/mL (≈ 4.94 mM). For the same compound, the solubility (aqueous solvent, aqueous with cosolvent or surfactant or cyclodextrin, Captisol 20%, 1% PVP) was 1520 µg/mL (≈ 4.82 mM), the solubility (aqueous solvent, aqueous with cosolvent or surfactant or cyclodextrin, Captisol 20%, 1% Tween 80) was 2010 µg/mL (≈ 6.4 mM) and the solubility (aqueous solvent, aqueous with cosolvent or surfactant or cyclodextrin, Captisol 20%, 2% CMC) was 365 µg/mL (≈ 1.16 mM). It also gave a solubility (aqueous solvent, aqueous with cosolvent or surfactant or cyclodextrin, Captisol 20%, 2% PVP) of 840 µg/mL (≈ 2.67 mM), a solubility (aqueous solvent, aqueous with cosolvent or surfactant or cyclodextrin, Captisol 20%, 2% Tween 80) of 720 µg/mL (≈ 2.29 mM) and a solubility (aqueous solvent, aqueous with cosolvent or surfactant or cyclodextrin, Captisol 20%, 5% CrEL) of 13500 µg/mL (≈ 43 mM). The solubility (aqueous solvent, aqueous with cosolvent or surfactant or cyclodextrin, Captisol 20%, 5% CrEL and EtOH) was 21500 µg/mL (≈ 68.4 mM), the solubility (aqueous solvent, aqueous with cosolvent or surfactant or cyclodextrin, Captisol 20%, 10% CrEL) was 46700 µg/mL (≈ 149 mM) and the solubility (aqueous solvent, aqueous with cosolvent or surfactant or cyclodextrin, Captisol 20%, EtOH (line below the 10% heading)) was 920 µg/mL (≈ 2.93 mM). The solubility (aqueous solvent, aqueous with cosolvent or surfactant or cyclodextrin, Captisol 20%, additive None) was 850 µg/mL (≈ 2.7 mM), the solubility (aqueous solvent, aqueous with cosolvent or surfactant or cyclodextrin, Captisol 40%, 0.5% CMC) was 3270 µg/mL (≈ 10.4 mM) and the solubility (aqueous solvent, aqueous with cosolvent or surfactant or cyclodextrin, Captisol 40%, 0.5% HPMC) was 2680 µg/mL (≈ 8.52 mM). The solubility (aqueous solvent, aqueous with cosolvent or surfactant or cyclodextrin, Captisol 40%, 0.5% PVP) was 2950 µg/mL (≈ 9.37 mM), the solubility (aqueous solvent, aqueous with cosolvent or surfactant or cyclodextrin, Captisol 40%, 0.5% Tween 80) was 2020 µg/mL (≈ 6.42 mM) and the solubility (aqueous solvent, aqueous with cosolvent or surfactant or cyclodextrin, Captisol 40%, 1% CMC) was 2640 µg/mL (≈ 8.38 mM). The solubility (aqueous solvent, aqueous with cosolvent or surfactant or cyclodextrin, Captisol 40%, 1% HPMC) was 3450 µg/mL (≈ 11 mM), the solubility (aqueous solvent, aqueous with cosolvent or surfactant or cyclodextrin, Captisol 40%, 1% PVP) was 3280 µg/mL (≈ 10.4 mM) and the solubility (aqueous solvent, aqueous with cosolvent or surfactant or cyclodextrin, Captisol 40%, 1% Tween 80) was 2650 µg/mL (≈ 8.43 mM). The solubility (aqueous solvent, aqueous with cosolvent or surfactant or cyclodextrin, Captisol 40%, additive None) was 2800 µg/mL (≈ 8.9 mM), the solubility (aqueous solvent, aqueous with cosolvent or surfactant or cyclodextrin, Captisol 0%, 5% CrEL and EtOH) was 36200 µg/mL (≈ 115 mM) and the solubility (aqueous solvent, pH 2, aqueous with cosolvent or surfactant or cyclodextrin, Captisol 20%, pH ~2) was 2480 µg/mL (≈ 7.89 mM). For the same compound, the solubility (aqueous solvent, pH 4, aqueous with cosolvent or surfactant or cyclodextrin, Captisol 20%, pH 4) was 650 µg/mL (≈ 2.07 mM), the solubility (aqueous solvent, pH 7.4, aqueous with cosolvent or surfactant or cyclodextrin, Captisol 20%, PBS (pH = 7.4)) was 720 µg/mL (≈ 2.29 mM) and the solubility (aqueous solvent, pH 7.4, aqueous with cosolvent or surfactant or cyclodextrin, Captisol 40%, PBS (pH = 7.4)) was 2300 µg/mL (≈ 7.31 mM). The solubility (aqueous solvent, pH 9, aqueous with cosolvent or surfactant or cyclodextrin, Captisol 20%, pH 9) was 850 µg/mL (≈ 2.7 mM), the solubility (aqueous solvent, water, Captisol 0%, additive None) was 0.26 µg/mL (≈ 0.000827 mM) and the “effect of complexation with Captisol on solubility of CBD in water and other aqueous solvents” value (complexation with an SAE-CD (Captisol)) was “significantly increased”.
